{"source": "patent US7109380B2", "about": "“Cyclopentenedione antifungal compounds and methods for their use” (The University of Mississippi, priority 2004, dated 2006)", "test_in_all_cases": "96-well microtiter fungal growth assay", "format_in_all_cases": "cell-based", "key": {"[1]": {"system": "Phomopsis obscurans", "source_text": "(§1) Pathogen collection. Isolates of Colletotrichum acutatum Simmonds, Colletotrichum fragariae Brooks, and Colletotrichum gloeosporioides (Penz.) Penz. & Sacc. in Penz. were obtained from B. J. Smith, USDA, ARS, Small Fruit Research Station, Poplarville, Mass. Colletotrichum fragariae (isolate CF63), C. acutatum (isolate CAGoff), and C. gloeosporioides (isolate CG162) were used for all pathogen and bioautography studies. Isolate CF63 is one of the most virulent isolates at infecting strawberry plants and inducing both crown and fruit rot (Smith and Black, 1990). CF63, CAGoff, and CG162 were used as standard test isolates because of our extensive knowledge of these isolates and their known fungicide sensitivity profiles in both bioautography and microtiter formats. The three Colletotrichum species were isolated from strawberry (Fragaria xananassa Duchesne). Botrytis cinerea Pers.:Fr, was isolated from commercial grape (Vitis vinifera L.) and Fusarium oxysporum Schlechtend:Fr from orchid (Cynoches sp.) by David E. Wedge, USDA ARS Natural Products Utilization Research Unit. Phomopsis viticola (Sacc.) and P. obscurans (Ellis & Everh.) Sutton were from Mike A. Ellis, Ohio State University, Wooster, Ohio. Fungi were grown on potato-dextrose agar (PDA, Difco, Detroit Mich.) in 9 cm petri dishes and incubated in a growth chamber at 24±2° C. and under cool-white fluorescent lights ([…]·m^−2·sec^−1 light) with 12-h photoperiod.\n(§2) Inoculum preparation. Conidia were harvested from 7–10 day-old cultures by flooding plates with 5 mL of sterile distilled water and dislodging conidia by softly brushing the colonies with an L-shaped glass rod. Conidial suspensions were filtered through sterile miracloth (Calbiochem-Novabiochem Corp., La Jolla Calif.) to remove mycelia. Conidia concentrations were determined photometrically, from a standard curve based on the absorbance at 625 nm and suspensions were then adjusted with sterile distilled water to a concentration of 1.0×10^6 conidia/mL.\n(§3) Microtiter assay. A standardized 96-well microtiter plate assay developed for discovery of natural product fungicidal agents. A 96-well microtiter assay was used to determine sensitivity of B. cinerea, C. acutatum, C. fragariae, C. gloeosporioides, F. oxysporum, Phomopsis viticola, and P. obscurans to the various antifungal agents in comparison with known fungicidal standards. Vinclozolin, captan, and thiabendazole, which represent three different modes of action, were used as standards in this experiment. Each fungus was challenged in a dose-response format using test compounds where the final treatment concentrations were 0.3, 3.0 and 30.0 μM. Microtiter plates (Nunc MicroWell, untreated; Roskilde, Denmark) were covered with a plastic lid and incubated in a growth chamber at 24±1 C and 12 h photoperiod under 60±5 μmol light. Growth was then evaluated by measuring absorbance of each well at 620 nm using a microplate photometer (Packard Spectra Count, Packard Instrument Co., Downers Grove, Ill.).\n(§4) Microbioassay Experimental Design. Chemical sensitivity of each fungus 96-well microtiter assay is used to determine sensitivity of B. cinerea, C. acutatum, C. fragariae, C. gloeosporioides, F. oxysporum, Phomopsis viticola, and P. obscurans. Each chemical is evaluated in duplicate at each dose (0.3, 3.0 and 30.0 μM) and repeated twice in time. Sixteen wells containing broth and inoculum serves as positive controls, eight wells containing solvent at the appropriate concentration and broth without inoculum are used as negative controls. […] Treatments are arranged as a split-plot design replicated twice in time. Whole-plots were fungal isolates and sub-plots are chemicals. Each dose level and response time is analyzed separately. The SAS system's analysis of variance procedure (Statistical Analysis System, Cary, N.C.) is used to identify significant factors and Fisher's protected LSD is used to separate means."}, "[2]": {"system": "Phomopsis viticola", "source_text": "as §1, §2, §3, §4"}, "[3]": {"system": "Colletotrichum acutatum", "source_text": "as §1, §2, §3\nas §4, with “controls. Mean absorbance values and standard errors is used to evaluate fungal growth at 48 hrs and 72 hrs except for P. obscurans and P. viticola the data are recorded at 120 hrs.” for “controls.”, “The SAS system's analysis of variance procedure (Statistical Analysis System, Cary, N.C.) is used to identify significant factors and Fisher's protected LSD is used to separate means.” left out"}, "[4]": {"system": "Fusarium oxysporum", "source_text": "as §1, §2, §3\nas §4, with “controls. Mean absorbance values and standard errors is used to evaluate fungal growth at 48 hrs and 72 hrs except for P. obscurans and P. viticola the data are recorded at 120 hrs.” for “controls.”, “The SAS system's analysis of variance procedure (Statistical Analysis System, Cary, N.C.) is used to identify significant factors and Fisher's protected LSD is used to separate means.” left out"}, "[5]": {"system": "Colletotrichum fragariae", "source_text": "as §1, §2, §3\nas §4, with “controls. Mean absorbance values and standard errors is used to evaluate fungal growth at 48 hrs and 72 hrs except for P. obscurans and P. viticola the data are recorded at 120 hrs.” for “controls.”, “The SAS system's analysis of variance procedure (Statistical Analysis System, Cary, N.C.) is used to identify significant factors and Fisher's protected LSD is used to separate means.” left out"}, "[6]": {"system": "Botrytis cinerea", "source_text": "as §1, §2, §3\nas §4, with “controls. Mean absorbance values and standard errors is used to evaluate fungal growth at 48 hrs and 72 hrs except for P. obscurans and P. viticola the data are recorded at 120 hrs.” for “controls.”, “The SAS system's analysis of variance procedure (Statistical Analysis System, Cary, N.C.) is used to identify significant factors and Fisher's protected LSD is used to separate means.” left out"}, "[7]": {"system": "Colletotrichum gloeosporioides", "source_text": "as §1, §2, §3\nas §4, with “controls. Mean absorbance values and standard errors is used to evaluate fungal growth at 48 hrs and 72 hrs except for P. obscurans and P. viticola the data are recorded at 120 hrs.” for “controls.”, “The SAS system's analysis of variance procedure (Statistical Analysis System, Cary, N.C.) is used to identify significant factors and Fisher's protected LSD is used to separate means.” left out"}}, "data": [{"smiles": "Cc1cc(C2CC2)nc(Nc2ccccc2)n1", "note": "[Cyprodinil]", "values": [{"measurement": "Percent change in fungal growth vs control (negative = inhibition)", "setting": "[1]; 0.3 μm, 120 hrs", "result": "−51.4 ± 5.9", "unit": "%"}, {"measurement": "Percent change in fungal growth vs control (negative = inhibition)", "setting": "[1]; 0.3 μm, 144 hrs", "result": "−46.3 ± 6.0", "unit": "%"}, {"measurement": "Percent change in fungal growth vs control (negative = inhibition)", "setting": "[1]; 3.0 μm, 120 hrs", "result": "−64.5 ± 10.7", "unit": "%"}, {"measurement": "Percent change in fungal growth vs control (negative = inhibition)", "setting": "[1]; 3.0 μm, 144 hrs", "result": "−72.6 ± 3.9", "unit": "%"}, {"measurement": "Percent change in fungal growth vs control (negative = inhibition)", "setting": "[1]; 30 μm, 120 hrs", "result": "−86.8 ± 1.3", "unit": "%"}, {"measurement": "Percent change in fungal growth vs control (negative = inhibition)", "setting": "[1]; 30 μm, 144 hrs", "result": "−81.5 ± 2.5", "unit": "%"}, {"measurement": "Mean percent fungal growth inhibition of Phomopsis viticola", "setting": "[2]; 0.3 μm, 120 hrs", "result": "−219 ± 122.1", "unit": "%"}, {"measurement": "Mean percent fungal growth inhibition of Phomopsis viticola", "setting": "[2]; 3.0 μm, 120 hrs", "result": "−184.6 ± 87.0", "unit": "%"}, {"measurement": "Mean percent fungal growth inhibition of Phomopsis viticola", "setting": "[2]; 3.0 μm, 144 hrs", "result": "451.7 ± 331.5", "unit": "%"}, {"measurement": "Mean percent fungal growth inhibition of Phomopsis viticola", "setting": "[2]; 30 μm, 120 hrs", "result": "−176.2 ± 48.2", "unit": "%"}, {"measurement": "Mean percent fungal growth inhibition of Phomopsis viticola", "setting": "[2]; 30 μm, 144 hrs", "result": "80.4 ± 111.6", "unit": "%"}, {"measurement": "Mean percent fungal growth inhibition of Colletotrichum acutatum", "setting": "[3]; 0.3 μm, 48 hrs", "result": "−102.2 ± 0.9", "unit": "%"}, {"measurement": "Mean percent fungal growth inhibition of Colletotrichum acutatum", "setting": "[3]; 0.3 μm, 72 hrs", "result": "−94.5 ± 4.4", "unit": "%"}, {"measurement": "Mean percent fungal growth inhibition of Colletotrichum acutatum", "setting": "[3]; 3.0 μm, 48 hrs", "result": "−98.1 ± 0.7", "unit": "%"}, {"measurement": "Mean percent fungal growth inhibition of Colletotrichum acutatum", "setting": "[3]; 3.0 μm, 72 hrs", "result": "−98.3 ± 0.6", "unit": "%"}, {"measurement": "Mean percent fungal growth inhibition of Colletotrichum acutatum", "setting": "[3]; 30 μm, 48 hrs", "result": "−99.7 ± 0.7", "unit": "%"}, {"measurement": "Mean percent fungal growth inhibition of Colletotrichum acutatum", "setting": "[3]; 30 μm, 72 hrs", "result": "−99.0 ± 0.3", "unit": "%"}, {"measurement": "Mean percent fungal growth inhibition of Fusarium oxysporum", "setting": "[4]; 0.3 μm, 48 hrs", "result": "16.4 ± 3.9", "unit": "%"}, {"measurement": "Mean percent fungal growth inhibition of Fusarium oxysporum", "setting": "[4]; 0.3 μm, 72 hrs", "result": "7.9 ± 2.9", "unit": "%"}, {"measurement": "Mean percent fungal growth inhibition of Fusarium oxysporum", "setting": "[4]; 3.0 μm, 48 hrs", "result": "2.6 ± 2.6", "unit": "%"}, {"measurement": "Mean percent fungal growth inhibition of Fusarium oxysporum", "setting": "[4]; 3.0 μm, 72 hrs", "result": "1.8 ± 2.7", "unit": "%"}, {"measurement": "Mean percent fungal growth inhibition of Fusarium oxysporum", "setting": "[4]; 30 μm, 48 hrs", "result": "−67.4 ± 4.3", "unit": "%"}, {"measurement": "Mean percent fungal growth inhibition of Fusarium oxysporum", "setting": "[4]; 30 μm, 72 hrs", "result": "−41.5 ± 5.1", "unit": "%"}, {"measurement": "Mean percent fungal growth inhibition of Colletotrichum fragariae", "setting": "[5]; 0.3 μm, 48 hrs", "result": "−94.1 ± 1.4", "unit": "%"}, {"measurement": "Mean percent fungal growth inhibition of Colletotrichum fragariae", "setting": "[5]; 0.3 μm, 72 hrs", "result": "−54.1 ± 19.3", "unit": "%"}, {"measurement": "Mean percent fungal growth inhibition of Colletotrichum fragariae", "setting": "[5]; 3.0 μm, 48 hrs", "result": "−89.0 ± 1.6", "unit": "%"}, {"measurement": "Mean percent fungal growth inhibition of Colletotrichum fragariae", "setting": "[5]; 3.0 μm, 72 hrs", "result": "−76.7 ± 4.7", "unit": "%"}, {"measurement": "Mean percent fungal growth inhibition of Colletotrichum fragariae", "setting": "[5]; 30 μm, 48 hrs", "result": "−95.5 ± 0.5", "unit": "%"}, {"measurement": "Mean percent fungal growth inhibition of Colletotrichum fragariae", "setting": "[5]; 30 μm, 72 hrs", "result": "−92.5 ± 3.2", "unit": "%"}, {"measurement": "Mean percent fungal growth inhibition of Botrytis cinerea", "setting": "[6]; 0.3 μm, 48 hrs", "result": "−96.6 ± 2.3", "unit": "%"}, {"measurement": "Mean percent fungal growth inhibition of Botrytis cinerea", "setting": "[6]; 0.3 μm, 72 hrs", "result": "26.56 ± 14.1", "unit": "%"}, {"measurement": "Mean percent fungal growth inhibition of Botrytis cinerea", "setting": "[6]; 3.0 μm, 48 hrs", "result": "−90.2 ± 3.3", "unit": "%"}, {"measurement": "Mean percent fungal growth inhibition of Botrytis cinerea", "setting": "[6]; 3.0 μm, 72 hrs", "result": "−81.4 ± 9.2", "unit": "%"}, {"measurement": "Mean percent fungal growth inhibition of Botrytis cinerea", "setting": "[6]; 30 μm, 48 hrs", "result": "−94.2 ± 2.1", "unit": "%"}, {"measurement": "Mean percent fungal growth inhibition of Botrytis cinerea", "setting": "[6]; 30 μm, 72 hrs", "result": "−96.2 ± 1.5", "unit": "%"}, {"measurement": "Mean percent fungal growth inhibition of Colletotrichum gloeosporoides", "setting": "[7]; 0.3 μm, 48 hrs", "result": "−89.9 ± 2.7", "unit": "%"}, {"measurement": "Mean percent fungal growth inhibition of Colletotrichum gloeosporoides", "setting": "[7]; 0.3 μm, 72 hrs", "result": "−62.9 ± 9.3", "unit": "%"}, {"measurement": "Mean percent fungal growth inhibition of Colletotrichum gloeosporoides", "setting": "[7]; 3.0 μm, 48 hrs", "result": "−85.4 ± 6.6", "unit": "%"}, {"measurement": "Mean percent fungal growth inhibition of Colletotrichum gloeosporoides", "setting": "[7]; 3.0 μm, 72 hrs", "result": "−76.4 ± 6.3", "unit": "%"}, {"measurement": "Mean percent fungal growth inhibition of Colletotrichum gloeosporoides", "setting": "[7]; 30 μm, 48 hrs", "result": "−95.1 ± 1.0", "unit": "%"}, {"measurement": "Mean percent fungal growth inhibition of Colletotrichum gloeosporoides", "setting": "[7]; 30 μm, 72 hrs", "result": "−91.1 ± 1.6", "unit": "%"}]}]}
